For data set [1], the system named is CCRF S-180. Put plainly: Antitumor activity against mouse S180 cells xenografted in rat. In kind it is functional.
Data set [2] is described as follows: Antitumor activity against mouse EAC cells xenografted in rat. In kind it is functional, Ehrlich.
In a further data set the test system is HCT-116. Put plainly: Cytotoxicity against human HCT116 cells. It is filed as functional, cell-based.
The test system of the next data set is Mus musculus. Briefly: Toxicity in ip dosed ddY mouse bearing mouse S180 cells. It is filed as organism-based, CCRF S-180. The settings on record: in vivo.
Data set [3] relates to CCRF S-180. Put plainly: Antitumor activity against mouse S180 cells implanted in ip dosed ddY mouse assessed as tumor volume after 7 days. It is filed as functional.
The subject of data set [4] is Pseudomonas aeruginosa. Briefly: Antimicrobial activity against Pseudomonas aeruginosa GN315. It is filed as functional.
Data set [5] has as its system Staphylococcus aureus. Briefly: Antimicrobial activity against methicillin-resistant Staphylococcus aureus isolate 17. It is filed as functional.
For data set [6], the system named is Escherichia coli. Briefly: Antimicrobial activity against Escherichia coli BE1126. It is filed as functional.
Data set [7] deals with Pseudomonas aeruginosa. Briefly: Antimicrobial activity against Pseudomonas aeruginosa A3. In kind it is functional.
The test system of data set [8] is Micrococcus luteus. Put plainly: Antimicrobial activity against Micrococcus luteus FDA16. In kind it is functional.
For another data set, the system named is Bacillus cereus. Put plainly: Antimicrobial activity against Bacillus cereus ATCC 10702. It is filed as functional.
In data set [9] the test system is Escherichia coli. Briefly: Antimicrobial activity against Escherichia coli BE1186. In kind it is functional.
The test system of data set [10] is Mycolicibacterium smegmatis. Briefly: Antimicrobial activity against rifamycin-resistant Mycobacterium smegmatis ATCC 607. In kind it is functional.
Data set [11] has as its system Staphylococcus aureus. Put plainly: Antimicrobial activity against Staphylococcus aureus MS9610. In kind it is functional.
Data set [12] relates to Bacillus subtilis. Briefly: Antimicrobial activity against Bacillus subtilis NRRL B-558. It is filed as functional.
In another data set the test system is Bacillus anthracis. Briefly: Antimicrobial activity against Bacillus anthracis. In kind it is functional.
The subject of data set [13] is Escherichia coli. Put plainly: Antimicrobial activity against Escherichia coli K-12. It is filed as functional.
Data set [14] relates to Salmonella enterica subsp. enterica. Put plainly: Antimicrobial activity against Salmonella typhi T-63. In kind it is functional, Salmonella enterica subsp. enterica serovar Typhi.
For data set [15], the system named is Escherichia coli. Briefly: Antimicrobial activity against Escherichia coli K-12 MLI629. It is filed as functional.
The test system of a further data set is Proteus mirabilis. Briefly: Antimicrobial activity against Proteus mirabilis IFM OM-9. It is filed as functional.
The test system of data set [16] is Mycolicibacterium smegmatis. Briefly: Antimicrobial activity against Mycobacterium smegmatis ATCC 607. It is filed as functional.
Data set [17] has as its system Staphylococcus aureus. Briefly: Antimicrobial activity against Staphylococcus aureus Smith. In kind it is functional.
A further data set relates to Proteus vulgaris. Put plainly: Antimicrobial activity against Proteus vulgaris OX19. In kind it is functional.
The subject of data set [18] is Escherichia coli. Briefly: Antimicrobial activity against Escherichia coli NIHJ. It is filed as functional.
Data set [19] concerns Bacillus subtilis. Briefly: Antimicrobial activity against Bacillus subtilis PCI 219. In kind it is functional.
For a further data set, the system named is Klebsiella pneumoniae. Briefly: Antimicrobial activity against Klebsiella pneumoniae PCI602. In kind it is functional.
The next data set has as its system Mycolicibacterium vaccae. Put plainly: Antimicrobial activity against Mycobacterium vaccae ATCC 15483. In kind it is functional.
Another data set concerns Corynebacterium bovis. Briefly: Antimicrobial activity against Corynebacterium bovis 1810. In kind it is functional.
In data set [20] the test system is Salmonella enterica subsp. enterica. Put plainly: Antimicrobial activity against Salmonella typhi JS11746. It is filed as functional, Salmonella enterica subsp. enterica serovar Typhi.
Data set [21] deals with Providencia rettgeri. Put plainly: Antimicrobial activity against Providencia rettgeri GN311. It is filed as functional.
In data set [22] the test system is Staphylococcus aureus. Briefly: Antimicrobial activity against Staphylococcus aureus FDA209P. In kind it is functional.
Data set [23] relates to Salmonella enterica subsp. enterica. Briefly: Antimicrobial activity against Salmonella enteritidis 1891. It is filed as functional, Salmonella enterica subsp. enterica serovar Enteritidis.
The test system of data set [24] is Escherichia coli. Briefly: Antimicrobial activity against Escherichia coli BEM11. In kind it is functional.
The test system of a further data set is Shigella flexneri. Briefly: Antimicrobial activity against Shigella flexneri 4bJS11811. In kind it is functional.
The test system of data set [25] is Staphylococcus aureus. Briefly: Antimicrobial activity against methicillin-resistant Staphylococcus aureus isolate 5. It is filed as functional.
For data set [26], the system named is Providencia rettgeri. Put plainly: Antimicrobial activity against Providencia rettgeri GN466. It is filed as functional.
The test system of data set [27] is Micrococcus luteus. Put plainly: Antimicrobial activity against Micrococcus luteus IFO 3333. In kind it is functional.
Data set [28] has as its system Micrococcus luteus. Put plainly: Antimicrobial activity against Micrococcus luteus PCI 1001. In kind it is functional.
The test system of another data set is Shigella dysenteriae. Briefly: Antimicrobial activity against Shigella dysenteriae JS1 1910. In kind it is functional.
For data set [29], the target named is Procathepsin L (Homo sapiens) (UniProt P07711). Put plainly: Inhibition of cathepsin L.
Data set [30] in a line: Inhibition of trypsin.
Data set [31] in a line: Inhibition of Pepsin.
The next data set deals with Cathepsin B (Homo sapiens, UniProt P07858). Briefly: Inhibition of cathepsin B.

Converted amounts (≈) assume the structure as drawn.

Sequence of Procathepsin L (Homo sapiens) (P07711 114-333 limits assumed): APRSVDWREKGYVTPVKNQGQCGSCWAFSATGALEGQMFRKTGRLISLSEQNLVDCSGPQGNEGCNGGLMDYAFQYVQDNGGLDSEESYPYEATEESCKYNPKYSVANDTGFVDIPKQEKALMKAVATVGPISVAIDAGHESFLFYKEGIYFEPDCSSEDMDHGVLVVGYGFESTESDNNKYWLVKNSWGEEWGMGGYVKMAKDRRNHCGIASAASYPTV

Consider `CC1(C)CC(CCC(=O)ONP(=O)(N2CC2)N2CC2)CC(C)(C)N1O`, for which the Activity in the data set on CCRF S-180 [1] amounted to 93%; in [2], 90%.
For `CC1(C)CC(C(=O)ONP(=O)(N2CC2)N2CC2)CC(C)(C)N1O` the same measures were 93% and 90%.
`COC(=O)[C@@H]1N=C1/C=C\CCCCCCCCC/C=C(/Cl)Br` had a 50% inhibitory concentration (IC50) in the data set on HCT-116 of 13.6 µM.
The same measure, in the same setting: for `CCCCCCCCCCCCC/C=C/C1=N[C@@H]1C(=O)OC` the value was 18.2 µM.
The compound `COC1=C(C)C(=O)C2=C(C1=O)[C@@H](COC(N)=O)[C@@]1(O)[C@H]3N[C@H]3CN21` [9A-DEMETHYLMITOMYCIN A] returned an LD50 in the data set with Mus musculus of 7.5 µg/mL. In addition, the ED50 in the data set on CCRF S-180 [3] was 4.9 µg/mL (≈ 14.6 µM).
In the case of `COc1c(O)cc2c(OC)c3c(c(O)c2c1O)C(=O)CC1CC(O)(C2CN2C)CC(=O)C31O` (stereo unspecified) [AZICEMICIN A], the MIC against Pseudomonas aeruginosa [4] is greater than 100 µg/mL; against Staphylococcus aureus [5] it was greater than 100 µg/mL; in the data set with Escherichia coli [6], 100 µg/mL (≈ 218 µM); in the data set on Pseudomonas aeruginosa [7] it was greater than 50 µg/mL; in the data set on Micrococcus luteus [8], 50 µg/mL (≈ 109 µM); in the data set with Bacillus cereus, greater than 100 µg/mL. Moreover, the MIC is 100 µg/mL (≈ 218 µM) against Escherichia coli [9]; 50 µg/mL (≈ 109 µM) in data set [10]; greater than 100 µg/mL with Staphylococcus aureus [11]; greater than 100 µg/mL against Bacillus subtilis [12]; 100 µg/mL (≈ 218 µM) with Bacillus anthracis; greater than 100 µg/mL with Escherichia coli [13]. Further, the minimum inhibitory concentration (MIC) in data set [14] was 100 µg/mL (≈ 218 µM); in the data set with Escherichia coli [15], greater than 100 µg/mL; with Proteus mirabilis, greater than 100 µg/mL; in data set [16], 50 µg/mL (≈ 109 µM); against Staphylococcus aureus [17] it was greater than 100 µg/mL; against Proteus vulgaris it was greater than 100 µg/mL. Besides, the MIC against Escherichia coli [18] is 50 µg/mL (≈ 109 µM); with Bacillus subtilis [19] it was greater than 100 µg/mL; against Klebsiella pneumoniae it was 100 µg/mL (≈ 218 µM); in the data set on Mycolicibacterium vaccae it was 50 µg/mL (≈ 109 µM); against Corynebacterium bovis, 25 µg/mL (≈ 54.4 µM); in [20], 100 µg/mL (≈ 218 µM). The minimal inhibitory concentration (MIC) against Providencia rettgeri [21] was greater than 100 µg/mL; against Staphylococcus aureus [22], greater than 100 µg/mL; in data set [23] it was 100 µg/mL (≈ 218 µM); with Escherichia coli [24], 100 µg/mL (≈ 218 µM); against Shigella flexneri, 50 µg/mL (≈ 109 µM); against Staphylococcus aureus [25] it was greater than 100 µg/mL. Moreover, the minimal inhibitory concentration (MIC) in the data set with Providencia rettgeri [26] was greater than 100 µg/mL; in the data set on Micrococcus luteus [27], 12.5 µg/mL (≈ 27.2 µM); with Micrococcus luteus [28], 12.5 µg/mL (≈ 27.2 µM); with Shigella dysenteriae it was 100 µg/mL (≈ 218 µM).
Turning to `CC[C@H](NC(=O)C[C@H](O)[C@H](CC(C)C)NC(=O)[C@H](CC(C)C)NC(=O)[C@@H]1N[C@H]1C(=O)O)C(=O)N[C@H](/C=C/C(=O)O)CCCN=C(N)N` [MIRAZIRIDINE A], the INH was determined as 1 ×10⁶ /M/s in data set [29], 6 ×10⁻⁵ M in data set [30], 1.4 ×10⁻⁸ M in data set [31] and 1.5 ×10⁴ /M/s at Cathepsin B. On Cathepsin B, this compound gave a half-maximal inhibitory concentration (IC50) of 2.09 µM.
`COC1=C(C)C(=O)C2=C(C1=O)[C@@H](COC(N)=O)[C@@]1(OC)[C@H]3N[C@H]3CN21` [MITOMYCIN A]: the LD50 with Mus musculus amounted to 2.1 µg/mL. Also, the ED50 in the data set with CCRF S-180 [3] amounted to 1.1 µg/mL (≈ 3.15 µM).
For `COC1=C(C)C(=O)C2=C(C1=O)[C@H](COC(N)=O)[C@@]1(O)[C@@H]3[C@H](CN21)N3C` (stereo partly specified) [MITOMYCIN B] the same measures were 4.5 µg/mL and 2.5 µg/mL (≈ 7.16 µM).
For `C=C1C2=C(C(=O)C(C)=C(OC)C2=O)N2C[C@H]3[C@H](N3C)[C@]12OC` (stereo partly specified) [MITOMYCIN G] the same measures were 130 µg/mL and 100 µg/mL (≈ 331 µM).
For `C=C1C2=C(C(=O)C(C)=C(OC)C2=O)N2C[C@H]3[C@H](N3C)[C@]12O` (stereo partly specified) [MITOMYCIN H] the same measures were 12 µg/mL and 6.8 µg/mL (≈ 23.6 µM).
In the case of `COC1=C(C)C(=O)C2=C(C1=O)[C@H](COC(N)=O)[C@@]1(OC)[C@@H]3[C@H](CN21)N3C` (stereo partly specified) [MITOMYCIN J], the LD50 in the data set with Mus musculus is 9 µg/mL. Moreover, in the data set with CCRF S-180 [3], the ED50 is 10 µg/mL (≈ 27.5 µM).
For `C=C1C2=C(C(=O)C(C)=C(N)C2=O)N2C[C@H]3[C@H](N3C)[C@]12OC` (stereo partly specified) [MITOMYCIN K] the same measures were 22 µg/mL and 35 µg/mL (≈ 122 µM).
Consider `C=C1C2=C(C(=O)C(C)=C(N)C2=O)N2C[C@H]3[C@H](N3C)[C@]12O` (stereo partly specified) [MITOMYCIN Z], for which, in the data set with Mus musculus, the LD50 worked out at 210 µg/mL. Also, the ED50 with CCRF S-180 [3] is 82 µg/mL (≈ 300 µM).
As to `CO[C@@]12[C@H](COC(N)=O)C3=C(C(=O)C(C)=C(N)C3=O)N1C[C@@H]1N[C@@H]12` [MITOMYCIN], the ED50 with CCRF S-180 [3] came out at 4.4 µg/mL (≈ 13.2 µM).
`COC1=C(C)C(=O)C2=C(C1=O)[C@@H](COC(N)=O)[C@@]1(OC)[C@@H]3[C@H](CN21)N3C` (stereo partly specified) [N-METHYL-MITOMYCIN A] returned an LD50 in the data set on Mus musculus of 5 µg/mL. Besides, the ED50 with CCRF S-180 [3] stood at 1.3 µg/mL (≈ 3.58 µM).
For `CO[C@@]12[C@H](COC(N)=O)C3=C(C(=O)C(C)=C(N)C3=O)N1C[C@H]1[C@@H]2N1C` (stereo partly specified) [PORFIROMYCIN] the same measures were 57 µg/mL and 22 µg/mL (≈ 63.2 µM).

Values taken from ChEMBL document CHEMBL1154010, “Aziridine alkaloids as potential therapeutic agents” (Eur J Med Chem, 2009).
